Measurements: patent US20130243928A1 (priority 2007, published 2013)

Test: Distribution (dissolution) of resveratrol in an aliquot of wine with heating
Format: physicochemical
Conditions: heating up to about 40° C., no added alcohol or other solvent
Text: The size, temperature and heating time for a batch of resveratrol concentrate will vary depending on how much resveratrol is needed to be added. […] Temperature can be measured by placing a thermometer in the batch of wine and timing the process.

amount of resveratrol that can be distributed in an aliquot of wine: about 1.25 (wt/vol)
Compound: Oc1ccc(/C=C/c2cc(O)cc(O)c2)cc1 [resveratrol, trans-3,5,4′-trihydroxystilbene]
